Experimental data published in patent US9260473B2, “Bivalent multifunctional ligands targeting Aβ oligomers as treatment for Alzheimer's disease” (Virginia Commonwealth University, priority 2010, dated 2016).
pKd: −log10 of the molar value.

Tests used:
[1] = tested on: intracellular oxidative stress; assay: DCFH-DA antioxidation assay in MC65 cells; type: cell-based, human; conditions: −TC, 24 hrs
Experimental: DCFH-DA antioxidation assay. MC65 cells were seeded in 96-well plates (4×10^4 cells/well). After incubation at 37° C., 5% CO2 for 24 hrs, the medium was removed and washed with PBS. Opti-MEM and test compounds were added (+TC, −TC, and blank with only test compounds). MC65 cells were incubated at 37° C., 5% CO2 for 24 hrs. Then DCFH-DA in Opti-MEM was added to each well (final DCFH-DA concentration was 25 uM) and incubate at 37° C., 5% CO2 for 30 min. The medium was removed and replaced with fresh opti-MEM and plates were read for fluorescence intensity at 485 nm (excitation)/530 nm (emission) using FlexStation III plate reader (Molecular Devices).

[2] = tested on: AβOs; assay: Immunocytochemistry assay of AβOs in MC65 cells (A11 antibody); type: cell-based, human; conditions: 10 μM, 24 hrs after removal of TC
Experimental: MC65 cells were treated with the indicated compounds (10 μM) immediately after the removal of TC. After 24 hrs, the cells were fixed and immunofluorescently stained for AβOs, CM/LR, and nucleus and imaged with a Leica TCS-SP2 AOBS confocal laser scanning microscope. Five areas were examined.
Immunocytochemistry assay. MC65 cells were plated onto Lab-Tee chamber slides (1×10^4 cells/well). After 24 hrs incubation at 37° C. and 5% CO2, Opti-MEM was added (with or without TC) and followed by test compounds. MC65 cells were incubated for 24 hrs. MC65 cells were rinsed 3× with PBS and incubated with Alexa 488-conjugated CTX-B (10 ug/mL) for 15 min on ice. After rinsing once with ice-cold PBS, cells were fixed for 30 min with 4% paraformaldehyde. MC65 cells were permeabilized for 30 min with 0.1% Triton X 100. Then MC65 cells were stained with A11 rabbit antibody followed by anti-rabbit Alexa 568 (1:500). Finally MC65 cells were treated with DAPI (5 ug/mL) and mounted with Vectashield Mounting Media. Cell fluorescence was analyzed by a Leica TCS-SP2 AOBS confocal laser scanning microscope equipped with blue diode, Argon, and 3 HeNe (lasers as well as a spectrophotometer based detection system with variable detector windows) using excitation lines at 355 nm, 488 nm, and 568 nm for DAPI, Alexa 488-conjugated CTX-B, and Alexa Fluor 568 donkey anti-rabbit IgG. […]

[3] = target: bovine serum albumin (BSA) (Bos taurus, UniProt P02769); assay: Fluorescence polarization binding to BSA; conditions: read-out: binding affinity to BSA (Kd)
Experimental: (§1) FIG. 8A-C. BMAOI 14 binds to Aβ42 monomers, oligomers, and fibrils, but not BSA. A. The monomers, oligomers and fibrils of Aβ42 were prepared according to established protocols and confirmed by TEM; B. Compound 14 (1 μM) was incubated with different forms of Aβ42 at indicated concentrations for 3 hrs. Then, fluorescence polarization change of 14 was recorded and the binding affinity was calculated; C. Compound 14 was incubated with BSA as described in B and the binding affinity was calculated.
(§2) To determine the binding affinity of 14 to Aβ, we evaluated changes in fluorescence polarization values of this probe at different 14:Aβ ratios for monomeric, oligomeric, and fibrillary Aβ species, respectively. Aβ42 is chosen to evaluate the binding of probe as it is the major and most sticky amyloid peptide found in AD plaques.^1 The formation of different Aβ42 species was confirmed by transmission electron microscope (TEM) as shown in FIG. 8A. […] It appears that 14 binds to Aβ42 with micromolar affinity and slightly favors […] fibrils over monomers and oligomers.

[4] = tested on: NK cells; assay: IL-2 augmented natural killer (NK) cell activity; type: cell-based, B6C3F1 mice; conditions: 10 μM
Experimental: IL-2 augmented natural killer (NK) cell activity. […] Recombinant IL-2 (Chiron, Emeryville, Calif.) at a volume of 50 μL was added to each well so that the final concentration of IL-2 was 5000 fU/mL. The plates were cultured overnight in the presence of 1 or 14 (10 μM), and then assayed for NK cell activity using ^51Cr-labeled YAC-1 cells as the target cells. The ^51Cr-YAC-1 cells were added to each well of a 96-well plate to obtain E:T ratio of 50:1. […] Following 4 hrs incubation, the plates were centrifuged, and 0.1 mL of the supernatant was removed from each well and the radioactivity counted. The mean percentage of cytotoxicity was determined.

[5] = target: T1, Aβ42 (Homo sapiens, UniProt P05067); assay: Aβ42 oligomerization inhibition assay (Western blot); type: biochemical; conditions: Aβ42 5 μM, compound 20 μM, 4 hrs at 37° C.
T1 construct: Aβ42 was obtained from American Peptide, Inc. (Sunnyvale, Calif.); purchased American Peptide, Inc. (Sunnyvale, Calif.)

[6] = in vitro; conditions: human, Caco-2
Experimental: Assessment of permeability and P-glycoprotein using Caco-2 cell model. […] To test whether 14 has the potential to reach the brain, we determined its permeability and transport directionality using the Caco-2 model.^48 Although the Caco-2 cell monolayer model is derived from the colon rather than the brain, this model expresses efflux transporters such as P-glycoprotein which are also expressed at the BBB.
Caco-2 permeability assay. Caco-2 cells (ATCC, Manassas, Va.) were cultured in high-glucose DMEM supplemented with 10% FBS and used between passages 30-50. Caco-2 cells were plated on 12-well polyester transwell inserts ([…] pore size) (Coming #3460) at a density of 80,000 cells/cm^2 and grown to 100% confluence (21 days). Filters were rinsed in Hank's balanced salt solution (HBSS) and test compounds (10 μM) were added to either the apical (0.5 mL) or basolateral (1.5 mL) side and incubated at 37° C. with shaking (100 rpm). Samples (200 μL) were removed at 30, 60, and 120 minutes with replacement of an equal volume of the appropriate buffer containing or lacking the compounds. Samples were stored at −20° C. until analysis. After 120 minutes, lucifer yellow was added to the donor chamber, with additional sampling as above at 10, 20, and 30 minutes. Lucifer yellow was analyzed by fluorescence (excitation 450 nm, emission 528 nm) in a Synergy 2 microplate reader. […] Buffer samples (200 μL) were mixed with acetonitrile (100 μL) and acetic acid (2 μL), vortexed and centrifuged at 4° C. for 5 minutes at 12,000 ref. Supernatants (100 μL) were injected onto an Alltech Alltima HP C18 4.6×100 mm 3 μm column and eluted with 38% acetonitrile, 62% aqueous (1% acetic acid in water) at 1.0 mL/min. To improve sensitivity over UV detection, fluorescence (Waters 2475) at the excitation/emission wavelengths of 443/533 and 274/305 (nm) for 1 and 14, respectively, was also detected. Permeability was determined according to Fick's Law. Efflux transport activity was defined as a permeability directional ratio (efflux ratio) ≧2.

[7] = target: T2, Aβ42 monomers (Homo sapiens, UniProt P05067); assay: Fluorescence polarization binding to Aβ42 monomers; conditions: compound 1 μM, 3 hrs, read-out: apparent binding constant (Kd) for Aβ42 monomers
T2 construct: The monomers, oligomers and fibrils of Aβ42 were prepared according to established protocols and confirmed by TEM
Experimental: as §1, §2

[8] = tested on: SH-SY5Y cells; assay: Cytotoxicity assay in differentiated SH-SY5Y cells treated with AβOs; type: cell-based, human; conditions: AβOs 1 μM, 48 hrs, all of the tested concentrations
Experimental: To further verify whether 14 can protect cells from extracellular AβOs-induced cytotoxicity, all trans-retinoic acid differentiated human SH-SY5Y cells were employed.
Cytotoxicity assay in differentiated SH-SY5Y cells. SH-SY5Y cells were plated at 10,000 cells/well in type 1 collagen coated 96-well plates (Invitrogen) and were differentiated in Opti-MEM supplemented with 2% B-27 (Invitrogen) and 10 μM all-trans-retinoic acid for 7 days. The medium was removed and replaced with fresh maintenance medium. Freshly prepared Aβ42 oligomers in Ham's F-12 medium (1 μM) was added to cells for 48 hrs at 37° C. with or without test compounds. After treatment, 20 uL CellTiter 96 AQueous One Solution (Promega, Madison, Wis.) were added to each well and the plates were incubated at 37° C., 5% CO2 for 2-4 hrs. The plates were read at 490 nm in FlexStation III plate reader (Molecular Devices). Each data point was averaged from six replicates and the experiments were independently repeated at least three times.

[9] = target: T3, Aβ42 fibrils (Homo sapiens, UniProt P05067); assay: Fluorescence emission before and after mixing with Aβ42 fibrils; type: binding; conditions: compound 1 μM
T3 construct: The monomers, oligomers and fibrils of Aβ42 were prepared according to established protocols and confirmed by TEM
Experimental: FIG. 9. Fluorescence emission of 14 (1 μM) before and after mixing with Aβ42 fibrils.
To examine the change of fluorescence properties upon binding to Aβ42, we compared the fluorescence properties of free 14 in aqueous solution to its fluorescence properties in the presence of Aβ42 fibrils as this chemical probe will be used to detect Aβ plaques. […] A blue shift in the emission spectra of 10 nm was also observed upon association with Aβ42 fibrils.

[10] = tested on: extracellular AβOs; assay: ML60 cell assay: ELISA for extracellular AβOs; type: cell-based, Chinese hamster; conditions: ML60 cells, 10 μM, 24 hrs
Experimental: Next, another cell line, ML60, was employed to evaluate the inhibition of AβOs production.
ML60 cell assay. Sandwich enzyme-linked immunoassays (ELISAs) for extracellular AβOs in ML60 cells were performed. ML60 cells (90% confluent) in 96-well plates were treated with test compounds (10 μM) at 37° C., 5% CO2 for 24 hrs. ML60 cells were centrifuged for 5 min at 6000 g, and supernatant media was collected for AβOs measurement by ELISA. The capture antibody 21F12 (to Aβ residues 33-42) was used for capturing both monomeric and oligomeric Aβ42 species. The detecting antibody was biotinylated 21F12B, and the combination of 21F12 and biotinylated 21F12B allows the detection of only AβOs. The 21F12 mAbs were coated at 10 mg/mL into 96-well immunoassay plates (Costar) at room temperature overnight. The plates were then aspirated and blocked with 0.25% human serum albumin in PBS buffer for 1 hr at room temperature. The plates were rehydrated with wash buffer (0.05% Tween 20 in TBS) before use. The samples were added to the plates and incubated at room temperature for 1 hr. The plates were washed 3× with wash buffer between each step of the assay. […] Reaction product was quantified using plate reader by measuring the difference in absorbance at 450 nm and 650 nm.

T3 sequence (P05067 672-713 limits assumed): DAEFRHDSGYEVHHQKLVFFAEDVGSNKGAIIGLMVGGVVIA
Chain of bovine serum albumin (BSA) (P02769 25-607): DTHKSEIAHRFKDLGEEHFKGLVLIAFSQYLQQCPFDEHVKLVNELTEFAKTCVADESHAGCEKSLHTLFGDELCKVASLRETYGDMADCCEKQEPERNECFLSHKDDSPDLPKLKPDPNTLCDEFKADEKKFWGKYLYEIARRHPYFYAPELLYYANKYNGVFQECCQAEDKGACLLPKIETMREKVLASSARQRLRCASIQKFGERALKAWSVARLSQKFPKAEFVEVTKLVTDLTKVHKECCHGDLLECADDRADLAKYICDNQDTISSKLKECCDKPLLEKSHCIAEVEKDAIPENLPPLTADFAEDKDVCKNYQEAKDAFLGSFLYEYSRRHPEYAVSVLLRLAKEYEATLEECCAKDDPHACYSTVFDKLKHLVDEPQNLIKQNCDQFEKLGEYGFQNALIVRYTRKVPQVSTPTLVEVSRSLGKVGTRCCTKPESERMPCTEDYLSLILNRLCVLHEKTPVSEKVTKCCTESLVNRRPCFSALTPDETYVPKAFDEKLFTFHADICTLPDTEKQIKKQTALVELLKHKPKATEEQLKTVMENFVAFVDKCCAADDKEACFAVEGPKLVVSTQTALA
T1 sequence (P05067 672-713 limits assumed): as the sequence (P05067 672-713 limits assumed) above
T2 sequence (P05067 672-713 limits assumed): as above

COc1cc(C=CC(=O)C(Cc2cn(CCCCCCNC(=O)CCNC(=O)CCNC(=O)COC3CCC4(C)C(=CCC5C4CCC4(C)C(C(C)CCCC(C)C)CCC54)C3)nn2)C(=O)C=Cc2ccc(O)c(OC)c2)ccc1O (stereo not shown) [BMAOI 14]
suppression of intracellular oxidative stress (DCFH-DA fluorescence) [1]: suppressed the intracellular oxidative stress in a dose-depndent manner
formation of AβOs (A11 immunocytochemistry) [2]: significantly inhibited
pKd [3]: ~3.92
cytotoxic effects in NK cells [4]: no cytotoxic effects
inhibition of oligomerization of Aβ42 [5]: inhibited the oligomerization of Aβ42
Papp A→B at 120 min, 10 µM [6]: 7.1 ×10⁻⁶ cm/s
Papp B→A at 120 min, 10 µM [6]: 4.7 ×10⁻⁶ cm/s
efflux ratio at 120 min, 10 µM [6]: 0.63
pKd [7]: 5.69
protection of SH-SY5Y cell viability from AβOs [8]: completely restored the cell viability
increase of emission intensity upon binding to Aβ42 fibrils ([9]; Aβ42=5 μM, excitation 430 nm): 4.5 fold
blue shift in the emission spectra upon association with Aβ42 fibrils [9]: 10 nm
production of extracellular AβOs (ELISA) [10]: inhibited the production of extracellular AβOs
